From patent publication EP1655608A1, “CFTR as a component of an autophagy signaling pathway, applications thereof to autophagic diseases, and determination of cystic fibrosis as an autophagic disease” (priority 2004, dated 2006)

Tests used:
[1] = system: CFTR Cl^- channel; experiment: Whole-cell patch-clamp Cl- currents in CFTR+/+ and CFTR-/- renal distal cells; assay type: cell-based, mouse
Excerpt: (§1) To address the importance of CFTR in autophagy, renal cells derived from distal tubules or the proximal convoluted tubules of Wild type (WT or CFTR^+/+) or CFTR deficient (CFTR^-/-) mice (40) were isolated and immortalized with the pSV3 neo vector, as described below (55).
Whole cell currents were monitored from Sertoli cells, CFTR^-/- and WT renal epithelial cells with an RK 400 amplifier (Biologic, Münster, Germany) as previously described (40). The bath (extracellular) solution consisted of 140 mM NMDGCl (N-methyl-D-glucamine chloride), 5 mM D-Glucose, 1 mM CaCl2, and 10 mM HEPES, pH 7.4. Patch pipette (intracellular) solution contained 140 mM NMDGCl, 5 mM D-Glucose, 5 mM EGTA, 5 mM MgATP, and 10 mM HEPES, pH 7.4. Osmolarity of both solutions was adjusted to 280 mOSM by adding mannitol. […] To generate whole cell current-voltage (I-V) relationship, membrane currents resulting from voltage stimuli were recorded for at least 3 min and analysed using an IBM-AT-compatible computer equipped with Digidata 1200 interface (Axon Instruments) and pCLAMP software (versions 5.51 and 6.0, Axon Instruments), respectively. Statistics-Results are expressed as mean ± S.E. of n observations using the Student's t test.

[2] = system: renal cells; experiment: Lindane-induced autophagic vacuolation of renal cells (electron microscopy); assay type: cell-based, mouse
Description: as §1
The ultrastructural changes caused by Lindane or starvation in Sertoli and renal cells were analysed by transmission electron microscopy, as previously described (57). Briefly, control and Lindane-treated cells (50 µM, 24 h) were scraped from the culture dish in PBS EDTA 1mM, pelleted and fixed with ice-cold 2.5% glutaraldehyde (TAAB, #G004) in 0.1 M Na cacodylate, pH 7.4 for at least 1 h at 4°C. Cell pellets were then rinsed in cacodylate buffer, postfixed in 1% OsO4 for 1 h at 4°C, dehydrated through graded ethanol washes, and embedded in epoxy resin. Oriented […] sections were obtained with diamond knives, and representative areas were chosen for ultra-thin sectioning. Thin […] sections were mounted on copper mesh grids, stained with uranyl acetate and lead citrate, and examined on a JEOL 1200 EXII electron microscope. 30-50 micrographs were taken randomly from each sample at primary magnification × 10,000.

[3] = system: p38; experiment: p38 / Jun kinase activation by Western blotting of Sertoli cell lysates; assay type: cell-based, mouse; conditions: Anisomycin 10 µg/ml, 15 min; phosphorylation of p38 and MK2
Excerpt: After stripping, equal loadings of proteins were verified by reprobing the blots with anti-ERK1 (Santa Cruz Biotechnology).

[4] = biological target: CFTR Cl^- channel (Mus musculus, UniProt P26361); experiment: Whole-cell patch-clamp Cl- currents in Sertoli cells; assay type: cell-based; design: endogenous in cells; host or cells: Sertoli 42GPA9 cell line (mouse)
CFTR Cl^- channel (Mus musculus, UniProt P26361), sequence (P26361 whole entry): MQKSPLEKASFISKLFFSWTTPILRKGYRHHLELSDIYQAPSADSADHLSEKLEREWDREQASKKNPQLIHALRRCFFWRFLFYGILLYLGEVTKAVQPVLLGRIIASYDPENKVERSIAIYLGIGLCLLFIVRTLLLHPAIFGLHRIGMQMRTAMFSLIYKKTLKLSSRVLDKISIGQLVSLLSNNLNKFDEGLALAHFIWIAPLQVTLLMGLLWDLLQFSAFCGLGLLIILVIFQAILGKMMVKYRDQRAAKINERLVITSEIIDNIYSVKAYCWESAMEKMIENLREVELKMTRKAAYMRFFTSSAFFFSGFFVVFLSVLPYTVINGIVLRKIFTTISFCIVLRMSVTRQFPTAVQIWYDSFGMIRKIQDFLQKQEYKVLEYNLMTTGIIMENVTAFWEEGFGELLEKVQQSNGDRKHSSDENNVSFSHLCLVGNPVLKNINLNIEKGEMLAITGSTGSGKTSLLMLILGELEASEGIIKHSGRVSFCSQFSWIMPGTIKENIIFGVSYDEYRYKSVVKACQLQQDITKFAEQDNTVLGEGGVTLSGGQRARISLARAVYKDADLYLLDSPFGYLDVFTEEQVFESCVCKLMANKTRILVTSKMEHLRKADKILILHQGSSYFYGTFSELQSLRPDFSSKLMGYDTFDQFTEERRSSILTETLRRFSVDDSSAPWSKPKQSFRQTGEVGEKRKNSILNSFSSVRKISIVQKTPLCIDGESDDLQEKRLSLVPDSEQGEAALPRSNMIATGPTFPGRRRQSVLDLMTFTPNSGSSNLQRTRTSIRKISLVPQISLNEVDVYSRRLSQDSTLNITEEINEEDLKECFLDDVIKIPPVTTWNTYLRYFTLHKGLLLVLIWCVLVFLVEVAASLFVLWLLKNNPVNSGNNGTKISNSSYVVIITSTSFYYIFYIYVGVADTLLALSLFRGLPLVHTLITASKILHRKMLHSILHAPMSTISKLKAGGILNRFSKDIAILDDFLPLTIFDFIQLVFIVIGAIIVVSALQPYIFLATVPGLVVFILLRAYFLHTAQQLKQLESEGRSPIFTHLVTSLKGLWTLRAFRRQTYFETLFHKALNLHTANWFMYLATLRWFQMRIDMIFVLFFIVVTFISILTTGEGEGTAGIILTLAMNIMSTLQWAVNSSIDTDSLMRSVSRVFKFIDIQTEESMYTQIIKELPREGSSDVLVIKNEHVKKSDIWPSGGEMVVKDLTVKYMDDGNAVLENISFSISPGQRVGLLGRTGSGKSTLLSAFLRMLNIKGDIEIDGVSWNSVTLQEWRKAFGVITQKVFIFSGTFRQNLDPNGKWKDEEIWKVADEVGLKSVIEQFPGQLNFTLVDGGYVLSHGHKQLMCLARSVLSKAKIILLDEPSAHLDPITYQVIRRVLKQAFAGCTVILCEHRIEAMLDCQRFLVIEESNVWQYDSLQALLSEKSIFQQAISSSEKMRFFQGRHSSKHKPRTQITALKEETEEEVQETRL
Description: (§2) Whole cell currents were monitored from Sertoli cells, CFTR^-/- and WT renal epithelial cells with an RK 400 amplifier (Biologic, Münster, Germany) as previously described (40). The bath (extracellular) solution consisted of 140 mM NMDGCl (N-methyl-D-glucamine chloride), 5 mM D-Glucose, 1 mM CaCl2, and 10 mM HEPES, pH 7.4. Patch pipette (intracellular) solution contained 140 mM NMDGCl, 5 mM D-Glucose, 5 mM EGTA, 5 mM MgATP, and 10 mM HEPES, pH 7.4. Osmolarity of both solutions was adjusted to 280 mOSM by adding mannitol. These solutions were designed to study Cl^- currents because Cl^- is the sole permeant ion in these conditions and to prevent Ca^2+ activated Cl^- currents by the addition of EGTA in the patch solution. After establishment of whole cell configuration, cells were stimulated by the addition of Lindane (50 µM), FSK (10 µM), vehicle (Me2S0 or ethanol) in the absence or the presence of NPPB (0.1mM), DIDS (4,4'-diisothiocyanatostilbene-2,2'-disulfonic acid, 1 mM, Sigma), glibenclamide (0.1mM, Sigma) or PD98059 (10 µM) in the bath solution. The cell membrane potential was clamped at -50mV and 400 ms pulses were applied from -100 to +120 mV with increments of 20 mV every 2 s. To generate whole cell current-voltage (I-V) relationship, membrane currents resulting from voltage stimuli were recorded for at least 3 min and analysed using an IBM-AT-compatible computer equipped with Digidata 1200 interface (Axon Instruments) and pCLAMP software (versions 5.51 and 6.0, Axon Instruments), respectively. Statistics-Results are expressed as mean ± S.E. of n observations using the Student's t test.

[5] = system: CFTR-EGFP; experiment: Subcellular distribution of CFTR-EGFP by confocal microscopy; assay type: cell-based, hamster; conditions: BHK cells, Lindane 24 h, NH4Cl 5 mM in medium
Description: BHK-21 (Baby hamster kidney epithelial cells, ATCC) stably expressing CFTR-EGFP cell-line was maintained in Dulbecco's modified Eagle's medium (DMEM, GIBCO) containing 10% fetal calf serum (GIBCO).
Autophagy was induced either by starvation or by treatment with Lindane under nutrient-rich condition. For Lindane treatment, cells were serum-starved for 2-16 hours in DMEM/Ham's F12 (1:1, GIBCO #61965-026: F12 GIBCO #31765-027) supplemented with either 1% Insulin-Transferrin-SeleniumA (GIBCO #51300-044) or 0.1% bovine serum albumin (A7030, Sigma) and treated with Lindane (50 µM, Sigma, H4500).

[6] = system: Sertoli 42GPA9 cells; experiment: Autophagic vacuolation of Sertoli cells (light, electron and confocal microscopy); assay type: cell-based, mouse
Description: Autophagy was induced either by starvation or by treatment with Lindane under nutrient-rich condition.
When bafilomycin A1 (BafA1, V-ATPase-specific inhibitor, 100 nM, Sigma); Park Davis Inhibitor PD98059 (MEK1-specific inhibitor, 10 µM, Cell Signaling), H89 (PKA inhibitor, 5 µM, Calbiochem), 3-Methyladenine (3 MA, autophagy-specific inhibitor, 10-30 mM, Sigma) or NPPB [5-nitro-2-(3-phenylpropylamino) benzoic acid, Cl^- channel blocker, 25 µM, Sigma] was used, it was added to the starvation medium for 90 min, prior to Lindane addition or nutrient deprivation.
The ultrastructural changes caused by Lindane or starvation in Sertoli and renal cells were analysed by transmission electron microscopy, as previously described (57). […] Cell pellets were then rinsed in cacodylate buffer, postfixed in 1% OsO4 for 1 h at 4°C, dehydrated through graded ethanol washes, and embedded in epoxy resin. Oriented […] sections were obtained with diamond knives, and representative areas were chosen for ultra-thin sectioning. […] 30-50 micrographs were taken randomly from each sample at primary magnification × 10,000.
Sertoli cells seeded on glass coverslips were transiently transfected with EGFP-Rab7 or MEK1^+-HA expression plasmids using Fugene 6 reagent (Roche), washed and allowed to recover overnight before addition of Lindane (50 µM). […] To determine the pH of the Lindane-induced vacuoles, living cells were stained with acridine-orange (5 µg/ml, Sigma), a membrane-permeable weak base whose fluorescence shifts from green at neutral pH to red in acidic compartments (59). 10 min later, cells were washed and directly observed under a confocal microscope.

[7] = system: p38; conditions: Lindane-treated cells; ref (38); cited from earlier work
[8] = system: CFTR Δex10; experiment: Whole-cell patch-clamp Cl- currents in renal proximal PCT cells; assay type: cell-based, mouse
Description: as §2

In the case of `Cl[C@H]1[C@H](Cl)[C@@H](Cl)[C@@H](Cl)[C@H](Cl)[C@H]1Cl` [Lindane, γ-hexachlorocyclohexane], the “induction of Cl^- currents in CFTR^+/+ renal distal cells” value ([1]; Lindane 50 µM) is reported as “induction of Cl^- currents”, the “reversed potential of induced currents” value ([1]; renal distal cells, n = 8) is reported as ~ 0 mV and the “autophagic vacuolation in CFTR-expressing renal cells” value ([2]; CFTR^+/+ renal cells) is reported as “could be generalized to renal cells, provided CFTR was expressed”. The “response in renal cells lacking CFTR expression” value ([2]; CFTR^-/- renal cells) was “dramatic accumulation of lamellar structures and little if any large autophagic vacuoles”, the “effect on Anisomycin-induced p38 activity” value [3] was “not ascribed to p38 inhibition” and the “anion selectivity sequence of induced currents” value [4] was “Br^-≥ Cl^->>I^-”. The “Cl^- conductance across plasma membrane” value ([4]; Lindane 50 µM) was “increased within minutes”, the “reversal potential of induced currents” value ([4]; symmetrical Cl- solutions) was ~ 0 mV and the “distribution of CFTR” value [5] was “redistributed from plasma membrane to vacuoles”. For the same molecule, the “size of autophagic vacuoles” value ([6]; Lindane 50 µM, 24 h, electron microscopy) was 2-20 µm^2, the “autophagic vacuoles observed per cell” value ([6]; Lindane 50 µM, 24 h, electron microscopy, n = 20 cells, average) was ~ 50 and the “induction of vacuolation / autophagy by the chemical alone” value ([6]; Lindane 50 µM, DDT 1.8 µM, Bϕ 90 µM, PCP 15 µM, SB203580 10 µM, NH4Cl 5 mM, 24 h) was “powerful activator of autophagy”. For the same molecule, the “time of maximal vacuolation” value ([6]; Lindane treatment) was 24 to 48 h, the reversibility of vacuolation ([6]; upon removal of the chemical) was “reversible upon Lindane removal” and the “activation of Jun kinases or p38” value [7] was “not activated”. The “induction of Cl- current in PCT cells” value ([8]; CFTR^+/+ PCT cells, Lindane 50 µM, forskolin 10 µM) was “induced a Cl- current”, the “Lindane-induced Cl- current in CFTR^-/- PCT cells” value ([8]; CFTR^-/- PCT cells) was “total inhibition” and the “anion selectivity sequence of induced current” value ([8]; PCT cells) was “Br^-≥ Cl^- >>I^-”. The “reversal potential of induced current” value ([8]; PCT cells) was ~ 0 mV.
